Source: ChEMBL document CHEMBL1201862, “PubChem BioAssay data set” (2004)
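Step 1: Grow cells in 96-well plates. Step 2: Expose to compound for 48 hours at 5 concentrations. Step 3: Interpolate endpoints linearly; if unreached, use highest concentration. GI50 = concentration required for 50% inhibition of growth.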 Activity calls are given as the source filed them. Cut-off read from the data, not from the text of the source: active = GI50 up to about 1.1 µM and inactive = higher.

Legend:
Experiment in all cases: NCI tumour cell line growth inhibition, 48 h
BT-549 = system: BT-549
HCC 2998 = system: HCC 2998
HCT-116 = system: HCT-116
HCT-15 = system: HCT-15
HL-60 = system: HL-60
IGROV-1 = system: IGROV-1
K562 = system: K562
MOLT-4 = system: MOLT-4
Malme-3M = system: Malme-3M
NCI-H23 = system: NCI-H23
NCI-H460 = system: NCI-H460
OVCAR-3 = system: OVCAR-3
OVCAR-8 = system: OVCAR-8
PC-3 = system: PC-3
RXF 393 = system: RXF 393
SF-295 = system: SF-295
SF-539 = system: SF-539
UO-31 = system: UO-31
SK-MEL-2 = system: SK-MEL-2
SK-OV-3 = system: SK-OV-3

| Structure (SMILES) | GI50 (BT-549) | GI50 (HCC 2998) | GI50 (HCT-116) | GI50 (HCT-15) [µM] | GI50 (HL-60) | GI50 (IGROV-1) | GI50 (K562) | GI50 (MOLT-4) | GI50 (Malme-3M) | GI50 (NCI-H23) | GI50 (NCI-H460) | GI50 (OVCAR-3) | GI50 (OVCAR-8) | GI50 (PC-3) | GI50 (RXF 393) | GI50 (SF-295) | GI50 (SF-539) | GI50 (UO-31) | GI50 (SK-MEL-2) | GI50 (SK-OV-3) |
| --- | --- | --- | --- | --- | --- | --- | --- | --- | --- | --- | --- | --- | --- | --- | --- | --- | --- | --- | --- | --- |
| COC1(OC)CC(CO)(CNc2nc(N)nc(Cl)c2C=O)C1 | 48.5 µM (inactive) | 28.1 µM (inactive) | 39.3 µM (inactive) | 26 | 13.6 µM (inactive) | 20.7 µM (inactive) | 5.74 µM (inactive) | 21.1 µM (inactive) | 81.7 µM (inactive) | 17.6 µM (inactive) | 85.7 µM (inactive) | 39.9 µM (inactive) | 43 µM (inactive) | 24 µM (inactive) | 34.1 µM (inactive) | > 100 µM (inactive) | > 100 µM (inactive) | 60.1 µM (inactive) | – | – |
| COC1CCC(O)C(/C=C/[N+](=O)[O-])C1 (stereo not given) | 2.58 µM (inactive) | 1.7 µM (inactive) | 1.93 µM (inactive) | 1.82 | 1.8 µM (inactive) | 1.66 µM (inactive) | 3.03 µM (inactive) | 2.18 µM (inactive) | – | 3.91 µM (inactive) | 2.62 µM (inactive) | 8.3 µM (inactive) | 1.95 µM (inactive) | 2.06 µM (inactive) | 1.42 µM (inactive) | 10.6 µM (inactive) | 4.4 µM (inactive) | 1.81 µM (inactive) | 10.2 µM (inactive) | 10.1 µM (inactive) |
| O=C(O[C@H](/C=C/c1ccccc1)P1(=O)N(Cc2ccccc2)[C@@H]2CCCC[C@H]2N1Cc1ccccc1)c1ccccc1 | 4.55 µM (inactive) | 5.9 µM (inactive) | 3.01 µM (inactive) | 2.91 | 3.66 µM (inactive) | 3.37 µM (inactive) | 3.24 µM (inactive) | – | 2.49 µM (inactive) | 2.47 µM (inactive) | 3.46 µM (inactive) | 3.68 µM (inactive) | 3.95 µM (inactive) | 3.39 µM (inactive) | – | 3.79 µM (inactive) | 2.98 µM (inactive) | 4.5 µM (inactive) | 2.27 µM (inactive) | 5.41 µM (inactive) |
| OC1(c2ccc(Cl)cc2)c2ccc(CN3CCCC3)cc2C2=NCCN21 (stereo not given) | 8.77 µM (inactive) | – | 14.1 µM (inactive) | 17.3 | 12.6 µM (inactive) | 14.5 µM (inactive) | 16.1 µM (inactive) | 11.6 µM (inactive) | 11 µM (inactive) | 16.9 µM (inactive) | 14.6 µM (inactive) | 16.1 µM (inactive) | 15.4 µM (inactive) | 13.3 µM (inactive) | 8.26 µM (inactive) | 14.6 µM (inactive) | 13.2 µM (inactive) | 14.1 µM (inactive) | 19 µM (inactive) | 14.2 µM (inactive) |
| CC(C)=CCC[C@]1(C)CC[C@]2(C)C3CCC(=C(C)C)[C@@H](CCCO)[C@]3(C)CC[C@@]2(C)C1 (stereo not given in full) | > 100 µM (inactive) | 25.5 µM (inactive) | 36.7 µM (inactive) | 34 | 33.8 µM (inactive) | 18.8 µM (inactive) | – | 39.2 µM (inactive) | > 100 µM (inactive) | 84.9 µM (inactive) | 54.1 µM (inactive) | 47.1 µM (inactive) | 30.5 µM (inactive) | 35.1 µM (inactive) | – | 43.1 µM (inactive) | – | 16.9 µM (inactive) | 18.8 µM (inactive) | > 100 µM (inactive) |
| COCC1OC(OC2OCC3OC4(OCC(O)(C(C)OC)C5OCOC54)OC3C2OC)C(OC)C(O)C1OC1OC(C)C(OC)C(OC2OC(C)C3OC4(CC(O)C(OC5CC(OC6CC(C)([N+](=O)[O-])C(OC)C(C)O6)C(OC(=O)c6c(C)c(Cl)c(O)c(Cl)c6OC)C(C)O5)C(C)O4)OC3(C)C2O)C1O (stereo not given) | > 100 µM (inactive) | > 100 µM (inactive) | > 100 µM (inactive) | > 100 | > 100 µM (inactive) | > 100 µM (inactive) | > 100 µM (inactive) | > 100 µM (inactive) | – | > 100 µM (inactive) | > 100 µM (inactive) | > 100 µM (inactive) | > 100 µM (inactive) | > 100 µM (inactive) | > 100 µM (inactive) | > 100 µM (inactive) | > 100 µM (inactive) | > 100 µM (inactive) | > 100 µM (inactive) | > 100 µM (inactive) |
| Clc1ccc(CCN[C@H]2CCCC[C@H]2N2CCCC2)cc1Cl | 26.2 µM (inactive) | 8.24 µM (inactive) | 19.5 µM (inactive) | 9.59 | 20.1 µM (inactive) | 16.8 µM (inactive) | 24.2 µM (inactive) | 24.4 µM (inactive) | 15.9 µM (inactive) | 23.8 µM (inactive) | 14.9 µM (inactive) | 19.6 µM (inactive) | 26.3 µM (inactive) | 27.9 µM (inactive) | – | 16 µM (inactive) | 28.4 µM (inactive) | 13.6 µM (inactive) | 20.8 µM (inactive) | 22.8 µM (inactive) |
| COc1ccccc1C[C@@H]1OC2(C=CC(=O)CC2SC(=O)c2ccccc2)O[C@H]1Cc1ccccc1OC (stereo not given in full) | 0.318 µM (active) | – | 0.241 µM (active) | 1.05 | 1.16 µM (inactive) | 1.42 µM (inactive) | 2.51 µM (inactive) | 0.449 µM (active) | 1.77 µM (inactive) | 2.03 µM (inactive) | 2.44 µM (inactive) | 1.59 µM (inactive) | 0.216 µM (active) | 1.88 µM (inactive) | 0.121 µM (active) | 1.63 µM (inactive) | 1.67 µM (inactive) | 1.28 µM (inactive) | 1.71 µM (inactive) | 2.17 µM (inactive) |
| O=C(O)c1ccccc1Sc1ccc(C=C2NC(=S)N(c3ccccc3)C2=O)s1 | > 100 µM (inactive) | 97.5 µM (inactive) | 72.8 µM (inactive) | > 100 | 25.2 µM (inactive) | > 100 µM (inactive) | 31.6 µM (inactive) | 54.1 µM (inactive) | > 100 µM (inactive) | > 100 µM (inactive) | > 100 µM (inactive) | 47.5 µM (inactive) | > 100 µM (inactive) | > 100 µM (inactive) | > 100 µM (inactive) | > 100 µM (inactive) | – | 78.7 µM (inactive) | 22.2 µM (inactive) | – |
| c1c[nH]c(-c2ccc(-c3ccc[nH]3)c3nsnc23)c1 | 27 µM (inactive) | 0.456 µM (active) | > 45.9 µM (inactive) | 0.245 | 73.8 µM (inactive) | 20.3 µM (inactive) | > 26.8 µM (inactive) | > 30.3 µM (inactive) | – | 0.0348 µM (active) | 17.3 µM (inactive) | 11.3 µM (inactive) | > 43.7 µM (inactive) | > 41.1 µM (inactive) | – | > 58.1 µM (inactive) | > 56.9 µM (inactive) | > 48.1 µM (inactive) | 44.3 µM (inactive) | > 68.1 µM (inactive) |
| O=C(O)CNc1ccc(Cl)c(Cl)c1 | 36.7 µM (inactive) | – | 19.2 µM (inactive) | 8.83 | 24 µM (inactive) | 1.1 µM (active) | 25.1 µM (inactive) | 29.6 µM (inactive) | – | 34.4 µM (inactive) | 23.6 µM (inactive) | 25.9 µM (inactive) | 29 µM (inactive) | 24.6 µM (inactive) | 35.3 µM (inactive) | 24.6 µM (inactive) | 33.5 µM (inactive) | 24.9 µM (inactive) | – | 37.8 µM (inactive) |
| O=C1c2ccsc2-c2cccc3cccc1c23.O=C1c2sccc2-c2cccc3cccc1c23 | 1.94 µM (inactive) | – | 2.78 µM (inactive) | 3.18 | 11.2 µM (inactive) | 6.59 µM (inactive) | 10 µM (inactive) | 1.29 µM (inactive) | 0.353 µM (active) | – | 4.94 µM (inactive) | 10.5 µM (inactive) | 4.94 µM (inactive) | 4.05 µM (inactive) | 2.49 µM (inactive) | 8.79 µM (inactive) | 6.22 µM (inactive) | 4.67 µM (inactive) | 14.8 µM (inactive) | 18.5 µM (inactive) |
| COc1ccccc1NCc1cccc2c(=O)c3ccc(Cl)cc3oc12 | > 100 µM (inactive) | > 100 µM (inactive) | > 100 µM (inactive) | > 100 | 22.9 µM (inactive) | 56 µM (inactive) | 47.1 µM (inactive) | > 100 µM (inactive) | 34.7 µM (inactive) | 59.3 µM (inactive) | – | 35.8 µM (inactive) | > 100 µM (inactive) | 58.7 µM (inactive) | – | > 100 µM (inactive) | 65.2 µM (inactive) | 95.9 µM (inactive) | 49.1 µM (inactive) | > 100 µM (inactive) |
| COc1cc2c(cc1OC)C13CCN4CC5=CCOC6CC(=O)N2C1C6C5CC43O (stereo not given) | > 100 µM (inactive) | > 100 µM (inactive) | > 100 µM (inactive) | > 100 | > 100 µM (inactive) | > 100 µM (inactive) | > 100 µM (inactive) | > 100 µM (inactive) | > 100 µM (inactive) | > 100 µM (inactive) | > 100 µM (inactive) | > 100 µM (inactive) | > 100 µM (inactive) | > 100 µM (inactive) | – | > 100 µM (inactive) | > 100 µM (inactive) | > 100 µM (inactive) | > 100 µM (inactive) | > 100 µM (inactive) |
| CC(C)OC(=O)Nc1cccc(Cl)c1 [CHLORPROPHAM] | 87.7 µM (inactive) | > 100 µM (inactive) | > 100 µM (inactive) | 83.6 | > 100 µM (inactive) | > 100 µM (inactive) | 89.9 µM (inactive) | > 100 µM (inactive) | – | > 100 µM (inactive) | 76.4 µM (inactive) | > 100 µM (inactive) | > 100 µM (inactive) | 94.4 µM (inactive) | > 100 µM (inactive) | > 100 µM (inactive) | > 100 µM (inactive) | > 100 µM (inactive) | > 100 µM (inactive) | > 100 µM (inactive) |
